Where a name gives a salt, the structure may show the parent alone. One block for each compound: values may come before it.
Assays:
[1] = intravenous bolus injection; cited from earlier work
[2] = OVX rats; oral administration; in the presence of an anti-resorptive agent (Gowen et al. 2000); cited from earlier work
[3] = postmenopausal women; placebo-controlled trial (Neer et al. 2001); cited from earlier work

melting point: 158 to 163 °C
Compound: COc1ccc(CC(C)(C)NC[C@H](O)[C@H]2CSCN2Cc2cccc(C#N)c2)cc1 (stereo in doubt) (as salt: hydrochloride) [Example 3, 3-(4-{1-Hydroxy-2-[2-(4-methoxy-phenyl)-1,1-dimethyl-ethylamino]-ethyl}-thiazolidin-3-ylmethyl)-benzonitrile]

melting point: 80 to 85 °C
Compound: CC(C)(Cc1ccc2ccccc2c1)NC[C@H](O)[C@H]1CSCN1Cc1ccc(SCc2ccco2)c([N+](=O)[O-])c1 (stereo in doubt) [Example 4, 2-(1,1-Dimethyl-2-naphthalen-2-yl-ethylamino)-1-{3-[4-(furan-2-ylmethylsulfanyl)-3-nitro-benzyl]-thiazolidin-4-yl}-ethanol]

Compound: CC(C)(Cc1ccc2ccccc2c1)NC[C@@H](O)COc1cccc(Cl)c1C#N [NPS-2143]
effect on serum PTH [1]: transient increase in serum PTH
effect on bone mass [2]: increase in bone mass

Compound: PTH peptide fragment (1–34): PTH peptide fragment (1–34), parathyroid hormone fragment; stimulator of bone formation (SVSEIQLMHNLGKHLNSMERVEWLRKKLQDVHNF; Parathyroid hormone; UniProt P01270 32-65, looked up, fragment)
reduction of the risk of non-traumatic, non-spine fractures [3]: 54%
reduction of the risk of spine fractures [3]: 65%
